According to patent US7964349B2, “Method to determine responsiveness of cancer to epidermal growth factor receptor targeting treatments” (The General Hospital Corporation, priority 2004, dated 2011):
“And” between values parts separate entries of the source, which are not always exact repeats. Identical values can stand only once. “Also recorded” adds a separate entry of the source.

Key:
[1] = tested on: non-small cell lung cancer (NSCLC)
Protocol: A significant clinical response was defined either as a partial response using RECIST criteria for patients with measurable disease, or for patients whose tumor burden could not be quantified using these criteria, an evaluable response was assessed by two physicians.

[2] = tested on: non-small cell lung cancer (NSCLC); settings: cited from earlier work
[3] = tested on: Lung cancer cells harboring EGFR mutations vs cells with wild-type receptor; experiment: Apoptosis / cell viability (MTT) assay with increasing drug concentrations; assay type: cell-based, human; settings: compared with cells expressing only wild-type EGFR
Protocol: 10,000 cells were seeded into individual wells of a 96-well plate. […] After 96 hours, the viability of cells was determined using the MTT assay. For caspase immunostaining, 10,000 cells were seeded onto 10 mm coverslips. The next day they were transfected with siRNA (see previous section for details). After 72 hours the cells were fixed in 4% paraformaldehyde at room temperature for 10 min. They were subsequently permeabilized for 5 min in 0.5% Triton X-100 and blocked for 1 hr in 5% normal goat serum (NGS). […] The next day the coverslips were washed 3 times in PBS and incubated for 1 hour with secondary antibody (goat anti-rabbit Texas-red conjugated; from Jackson Immunoresearch; West Grove, Pa.) at a 1:250 dilution in 5% normal goat serum and 0.5 μg/ml of DAPI (4′,6-Diamidino-2-phenylindole). After 3 washes in PBS the coverslips were mounted with ProLong Gold anti-fade reagent from Molecular Probes (Eugene, Oreg.).
10 μl of 5 mg/ml MTT (Thiazolyl blue; Sigma) solution was added to each well of a 96-well plate. After 2 hours of incubation at 37° C., the medium was removed and the MTT was solubilized by the addition of 100 μl of acidic isopropanol (0.1N HCL) to each well. The absorbance was determined spectophotometrically at 570 nm.

[4] = tested on: advanced NSCLC; experiment: Randomized trial of carboplatin/paclitaxel with or without erlotinib in advanced NSCLC; assay type: in vivo, human
Protocol: Tumor specimens were analyzed from patients with advanced NSCLC treated on the randomized trial of carboplatin/paclitaxel with or without erlotinib.

[5] = single patients 1-9, one per line
[6] = multi-institutional phase II trial

Compound: COc1cc2ncnc(Nc3ccc(F)c(Cl)c3)c2cc1OCCCN1CCOCC1 [Gefitinib]
- patients identified as having significant clinical responses ([1]; of a total of 275 patients treated): 25 patients
- Overall Survival, from the beginning of gefitinib treatment to death [1, 5]: >14.0 mo and 12.9 mo and >21.4 mo and >7.8 mo and >4.3 mo and 17.9 mo and 18.8 mo
- Response [1, 5]: Major; Improved bilateral; also recorded: Partial; improved lung; also recorded: Minor; improved pleural; also recorded: Partial; improved liver; also recorded: Major; improved lung
- median survival from the start of drug treatment ([1]; the 9 responder patients of Table 1): > 18 months
- patients with dramatic clinical responses ([2]; chemotherapy-refractory NSCLC): approximately 10%
- side effects of treatment ([2]; generally believed consequence of EGFR inhibition in normal tissues): diarrhea and dermatitis
- response rate, Japanese patients [2, 6]: 27.5%
- response rate, predominantly European-derived population [2, 6]: 10.4%

Compound: N.N.[Cl][Pt][Cl] [cisplatin]
- resistance of EGFR-mutant lung cancer cells to induced cell death signals [3]: markedly increased resistance

Compound: COc1cccc2c1C(=O)c1c(O)c3c(c(O)c1C2=O)C[C@@](O)(C(=O)CO)C[C@@H]3O[C@H]1C[C@H](N)[C@H](O)[C@H](C)O1 [doxorubicin]
- resistance of EGFR-mutant lung cancer cells to induced cell death signals [3]: markedly increased resistance

Compound: C#Cc1cccc(Nc2ncnc3cc(OCCOC)c(OCCOC)cc23)c1 [erlotinib]
- survival in the two treatment arms [4]: equivalent survival

Compound: Fas-ligand
- resistance of EGFR-mutant lung cancer cells to induced cell death signals [3]: markedly increased resistance
